What was measured:
[1] = Drug concentration in Wistar rat plasma at 3 mg/kg, po after 2 hrs by LC-MS/MS analysis; assay type: ADME, organism-based
Rattus norvegicus [2] = assay: Memory enhancement effect in time-delay induced Wistar rat model of amnesia assessed as exploration time for object1 in acquisition trial at 3 mg/kg, po administered as single dose and measured on day 8 by novel object recognition test (reference value: 13.95 sec); assay type: functional
Rattus norvegicus [3] = assay: Memory enhancement effect in time-delay induced Wistar rat model of amnesia assessed as exploration time for object2 at 3 mg/kg, po administered as single dose after acquisition trial by novel object recognition test (reference value: 21.07 sec); assay type: functional
Rattus norvegicus [4] = assay: Memory enhancement effect in scopolamine-induced Wistar rat model of amnesia assessed as increase in exploration time for novel object in retention trial at 0.15 mg/kg, po administered as single dose and measured on day 9 by novel object recognition test (reference value: 12.09 sec); assay type: functional
Rattus norvegicus [5] = assay: Memory enhancement effect in scopolamine-induced Wistar rat model of amnesia assessed as exploration time for familiar object in retention trial at 0.15 mg/kg, po administered as single dose and measured on day 9 by novel object recognition test (reference value: 8.59 sec); assay type: functional
Rattus norvegicus [6] = assay: Memory enhancement effect in time-delay induced Wistar rat model of amnesia assessed as exploration time for familiar object at 3 mg/kg, po administered as single dose after acquisition trial by novel object recognition test (reference value: 10.6 sec); assay type: functional
Rattus norvegicus [7] = assay: Memory enhancement effect in time-delay induced Wistar rat model of amnesia assessed as increase in exploration time for novel object in retention trial at 3 mg/kg, po administered as single dose and measured on day 9 by novel object recognition test (reference value: 12.06 sec); assay type: functional
Rattus norvegicus [8] = assay: Memory enhancement effect in time-delay induced Wistar rat model of amnesia assessed as exploration time for object1 at 3 mg/kg, po administered as single dose after acquisition trial by novel object recognition test (reference value: 19.09 sec); assay type: functional
Rattus norvegicus [9] = assay: Memory enhancement effect in time-delay induced Wistar rat model of amnesia assessed as exploration time for novel object at 3 mg/kg, po administered as single dose after acquisition trial by novel object recognition test (reference value: 12.81 sec); assay type: functional
Rattus norvegicus [10] = assay: Improvement in social recognition time delay-induced Sprague-Dawley rat model of amnesia assessed as increase in reduction in social investigation time at 3 mg/kg, po administered as single dose prior to 1 hr training and measured after 30 mins (reference value: 0.39%); assay type: functional; design: scale not given: the % may be the effect or the level left
Rattus norvegicus [11] = assay: Memory enhancement effect in time-delay induced Wistar rat model of amnesia assessed as exploration time for familiar object in retention trial at 0.05 mg/kg, po for 7 days and measured on day 8 by novel object recognition test (reference value: 10.20 sec); assay type: functional
Rattus norvegicus [12] = assay: Improvement in social recognition time delay-induced Sprague-Dawley rat model of amnesia assessed as increase in reduction in social investigation time at 0.15 mg/kg, po for 7 days and measured on day 9 (reference value: -0.5%); assay type: functional; design: scale not given: the % may be the effect or the level left
Rattus norvegicus [13] = assay: Memory enhancement effect in scopolamine-induced Wistar rat model of amnesia assessed as exploration time for novel object in retention trial at 0.05 mg/kg, po for 7 days and measured on day 8 by novel object recognition test (reference value: 12.09 sec); assay type: functional
[14] = Ratio of drug level in brain to plasma in Wistar rat at 3 mg/kg, po after 2 hrs by LC-MS/MS analysis; assay type: ADME, organism-based; conditions: brain and plasma, read-out: BPR
Rattus norvegicus [15] = assay: Memory enhancement effect in scopolamine-induced Wistar rat model of amnesia assessed as exploration time for object1 in acquisition trial at 0.15 mg/kg, po administered as single dose and measured on day 8 by novel object recognition test (reference value: 16.11 sec); assay type: functional
Rattus norvegicus [16] = assay: Memory enhancement effect in time-delay induced Wistar rat model of amnesia assessed as exploration time for novel object in retention trial at 0.05 mg/kg, po for 7 days and measured on day 8 by novel object recognition test (reference value: 15.37 sec); assay type: functional
Rattus norvegicus [17] = assay: Memory enhancement effect in scopolamine-induced Wistar rat model of amnesia assessed as exploration time for object1 in acquisition trial at 0.05 mg/kg, po for 7 days and measured on day 8 by novel object recognition test (reference value: 16.11 sec); assay type: functional
Rattus norvegicus [18] = assay: Memory enhancement effect in time-delay induced Wistar rat model of amnesia assessed as exploration time for object1 in acquisition trial at 0.05 mg/kg, po for 7 days and measured on day 8 by novel object recognition test (reference value: 13.73 sec); assay type: functional
Rattus norvegicus [19] = assay: Memory enhancement effect in time-delay induced Wistar rat model of amnesia assessed as exploration time for object2 in acquisition trial at 3 mg/kg, po administered as single dose and measured on day 8 by novel object recognition test (reference value: 16.33 sec); assay type: functional
Rattus norvegicus [20] = assay: Memory enhancement effect in scopolamine-induced Wistar rat model of amnesia assessed as exploration time for object2 in acquisition trial at 0.05 mg/kg, po for 7 days and measured on day 8 by novel object recognition test (reference value: 15.63 sec); assay type: functional
Rattus norvegicus [21] = assay: Memory enhancement effect in time-delay induced Wistar rat model of amnesia assessed as exploration time for object2 in acquisition trial at 0.05 mg/kg, po for 7 days and measured on day 8 by novel object recognition test (reference value: 11.76 sec); assay type: functional
[22] = Drug level in Wistar rat brain at 3 mg/kg, po after 2 hrs by LC-MS/MS analysis; assay type: ADME, organism-based; conditions: read-out: Drug uptake
Rattus norvegicus [23] = assay: Memory enhancement effect in time-delay induced Wistar rat model of amnesia assessed as exploration time for familiar object in retention trial at 3 mg/kg, po administered as single dose and measured on day 9 by novel object recognition test (reference value: 13.05 sec); assay type: functional
Rattus norvegicus [24] = assay: Memory enhancement effect in scopolamine-induced Wistar rat model of amnesia assessed as exploration time for object2 in acquisition trial at 0.15 mg/kg, po administered as single dose and measured on day 8 by novel object recognition test (reference value: 15.63 sec); assay type: functional
Rattus norvegicus [25] = assay: Improvement in social recognition scopolamine-induced Sprague-Dawley rat model of amnesia assessed as increase in reduction in social investigation time at 3 mg/kg, po administered as single dose prior to 1 hr training and measured after 30 mins (reference value: 9.81%); assay type: functional; design: scale not given: the % may be the effect or the level left
Rattus norvegicus [26] = assay: Improvement in social recognition scopolamine-induced Sprague-Dawley rat model of amnesia assessed as increase in reduction in social investigation time at 0.15 mg/kg, po for 7 days measured after 24 hrs (Rvb =6.59%); assay type: functional; design: scale not given: the % may be the effect or the level left
Rattus norvegicus [27] = assay: Memory enhancement effect in scopolamine-induced Wistar rat model of amnesia assessed as exploration time for familiar object in retention trial at 0.05 mg/kg, po for 7 days and measured on day 8 by novel object recognition test (reference value: 8.59 sec); assay type: functional

Work on `CCC(=O)c1cc(-c2ccc(Cl)cc2)n(-c2ccc(S(N)(=O)=O)cc2)c1C` yielded a concentration at 2 h [1] of 0.7 to 1.05 µM, a Time (Rattus norvegicus [2]) of 25.62 s and a Time (Rattus norvegicus [3]) of 17.17 s. The Time (Rattus norvegicus [4]) was 16.33 s, the Time (Rattus norvegicus [5]) was 5.7 s and the Time (Rattus norvegicus [6]) was 8.05 s. The Time (Rattus norvegicus [7]) was 28.31 s, the Time (Rattus norvegicus [8]) was 12.7 s and the Time (Rattus norvegicus [9]) was 14.61 s. For the same compound, the Activity (Rattus norvegicus [10]) was 35.28%, the Time (Rattus norvegicus [11]) was 10.19 s and the Activity (Rattus norvegicus [12]) was 65.75%. For the same compound, the Time (Rattus norvegicus [13]) was 16.33 s, the Kp at 2 h [14] was 0.1 to 0.2 and the Time (Rattus norvegicus [15]) was 14.7 s. The Time (Rattus norvegicus [16]) was 14.16 s, the Time (Rattus norvegicus [17]) was 14.7 s and the Time (Rattus norvegicus [18]) was 11.58 s. For the same compound, the Time (Rattus norvegicus [19]) was 20.37 s, the Time (Rattus norvegicus [20]) was 14.75 s and the Time (Rattus norvegicus [21]) was 12.59 s. It also gave a concentration at 2 h [22] of 0.11 to 0.14 µM, a Time (Rattus norvegicus [23]) of 11.47 s and a Time (Rattus norvegicus [24]) of 14.75 s. It also gave an Activity (Rattus norvegicus [25]) of 50.67%, an Activity (Rattus norvegicus [26]) of 31.8% and a Time (Rattus norvegicus [27]) of 5.7 s.
